Article PMC7178340 (ACS Omega, 2020)

Test system: VEGFR
Assay: Cell-based competitive binding assay on U87MG cells
Parameters: species or system human
Conditions: read-out: IC50, competitive binding, competition against [^64Cu]VEGF125–136 (74 kBq/1 mL), competitor 0-10 000 nmol/L, 37 °C, 1 h, γ counter, triplicate

QKRKRKKSRYKS [VEGF125–136]
IC50: 277 ± 6.19 nM
